Marks after values point to notes of the source that are not given here.
Legend:
Format in all cases: in vivo
anesthetized dogs = assay: Cardiovascular actions following intra-venous administration, opened thorax and artificial respiration; settings: opened thorax, artificial respiration
From the text: (§1) In particular, they have a pronounced cardiovascular action. On isolated strips of veins from dogs, they act against the K⁺-induced contraction in a lower concentration than on aorta strips. On isolated hearts from guinea pigs, they increase coronary flow as a function of the dose. On anesthetized rats, they prevent lypressin coronary spasm as a function of the dose and significiantly increase the survival rate of rats following acute cardiac infarction. On normotensive conscious dogs, they lower the systolic blood pressure for a period of 6-8 hours after oral administration. On artifically respirated anesthetized, thoraxotomized dogs, they reduce the mean arterial pressure, the left ventricular systolic pressure, the left ventricular end diastolic pressure and the pressure in the Arteria pulmonalis and reduce the peripheral vascular resistance. In contrast to the known organic nitrate esters, they also lead to a long-lasting reduction in the systolic blood pressure of spontaneously hypertensive rats. Such an action profile is not known for any of the substances of similar structure which have already been described.

anesthetized rat = assay: Lypressin-induced T-wave increase in the ECG (lypressin coronary spasm), method of M. Leitold et al.
From the text: as §1

Mice = assay: Peroral tolerance in mice; settings: mouse, in vivo
From the text: Set forth below is data obtained on the compounds of Examples 17, 19 and 20 that illustrates the pharmacological action of the compounds of the present invention.

rats = assay: Survival rate after acute coronary ligature, method of I. Lepran et al.; settings: 30.0 mg/kg orally 5 minutes before ligature
From the text: as §1

conscious beagle dogs = assay: Systolic blood pressure and heart rate following peroral administration; settings: 6.0 mg/kg peroral, mean ± SEM
From the text: as §1

SMILES: COc1ccccc1N1CCN(CC(O)CO[C@H]2CO[C@H]3[C@@H]2OC[C@H]3O[N+](=O)[O-])CC1 (stereo partly shown) [Example 17, 2-O-<3-[4-(2-Methoxyphenyl)-piperazinyl]-2-hydroxypropyl>-isosorbide-5-nitrate]
- CO, Action of substance (anesthetized dogs; 30 µg/kg intra-venous): 0.93 ± 0.07 l/M
- CO, Change (anesthetized dogs; 30 µg/kg intra-venous): 0.07 ± 0.04 l/M
- CO, Duration of action (anesthetized dogs; 30 µg/kg intra-venous): 6 ± 3 min
- HR (heart rate), Action of substance (anesthetized dogs; 30 µg/kg intra-venous): 219 ± 18 Bts/M
- HR (heart rate), Change (anesthetized dogs; 30 µg/kg intra-venous): 21 ± 18 Bts/M
- HR (heart rate), Duration of action (anesthetized dogs; 30 µg/kg intra-venous): 6 ± 2 min
- LVEDP (left ventricular enddiastolic pressure), Action of substance (anesthetized dogs; 30 µg/kg intra-venous): 6.2 ± 0.7 mmHg
- LVEDP (left ventricular enddiastolic pressure), Change (anesthetized dogs; 30 µg/kg intra-venous): 0.2 ± 0.03 mmHg
- LVEDP (left ventricular enddiastolic pressure), Duration of action (anesthetized dogs; 30 µg/kg intra-venous): 2.2 ± 1.3 min
- LVSP (left ventricular systolic blood pressure), Action of substance (anesthetized dogs; 30 µg/kg intra-venous): 131 ± 9 mmHg
- LVSP (left ventricular systolic blood pressure), Change (anesthetized dogs; 30 µg/kg intra-venous): 19 ± 6 mmHg
- LVSP (left ventricular systolic blood pressure), Duration of action (anesthetized dogs; 30 µg/kg intra-venous): 5 ± 3 min
- MAP (mean arterial blood pressure), Action of substance (anesthetized dogs; 30 µg/kg intra-venous): 83 ± 1 mmHg
- MAP (mean arterial blood pressure), Change (anesthetized dogs; 30 µg/kg intra-venous): 23 ± 2 mmHg
- MAP (mean arterial blood pressure), Duration of action (anesthetized dogs; 30 µg/kg intra-venous): 14 ± 1 min
- PAP, Action of substance (anesthetized dogs; 30 µg/kg intra-venous): 17.0 ± 4 mmHg
- PAP, Change (anesthetized dogs; 30 µg/kg intra-venous): 1.3 ± 0.5 mmHg
- PAP, Duration of action (anesthetized dogs; 30 µg/kg intra-venous): 2 ± 0.3 min
- SV, Action of substance (anesthetized dogs; 30 µg/kg intra-venous): 52 ± 0.4 mL/s
- SV, Change (anesthetized dogs; 30 µg/kg intra-venous): 0.4 ± 0.2 mL/s
- SV, Duration of action (anesthetized dogs; 30 µg/kg intra-venous): 2 ± 0.2 min
- TPR (total peripheral vascular resistance), Action of substance (anesthetized dogs; 30 µg/kg intra-venous): 65 ± 12 mmHg/ml
- TPR (total peripheral vascular resistance), Change (anesthetized dogs; 30 µg/kg intra-venous): 23 ± 4 mmHg/ml
- TPR (total peripheral vascular resistance), Duration of action (anesthetized dogs; 30 µg/kg intra-venous): > 14 min
- dp/dtmax (maximum rate of increase in the left ventricular pressure), Action of substance (anesthetized dogs; 30 µg/kg intra-venous): 3144 ± 166 mmHg/s
- dp/dtmax (maximum rate of increase in the left ventricular pressure), Change (anesthetized dogs; 30 µg/kg intra-venous): 424 ± 95 mmHg/s
- dp/dtmax (maximum rate of increase in the left ventricular pressure), Duration of action (anesthetized dogs; 30 µg/kg intra-venous): 8 ± 3 min
- CO, Action of substance (anesthetized dogs; 300 µg/kg intra-venous): 0.684 ± 0.137 l/M
- CO, Change (anesthetized dogs; 300 µg/kg intra-venous): 0.127 ± 0.046 l/M
- CO, Duration of action (anesthetized dogs; 300 µg/kg intra-venous): 73 ± 40 min
- HR (heart rate), Action of substance (anesthetized dogs; 300 µg/kg intra-venous): 206 ± 15 Bts/M
- HR (heart rate), Change (anesthetized dogs; 300 µg/kg intra-venous): 15 ± 13 Bts/M
- HR (heart rate), Duration of action (anesthetized dogs; 300 µg/kg intra-venous): 2.4 ± 1 min
- LVEDP (left ventricular enddiastolic pressure), Action of substance (anesthetized dogs; 300 µg/kg intra-venous): 5.5 ± 0.8 mmHg
- LVEDP (left ventricular enddiastolic pressure), Change (anesthetized dogs; 300 µg/kg intra-venous): 0.3 ± 0.1 mmHg
- LVEDP (left ventricular enddiastolic pressure), Duration of action (anesthetized dogs; 300 µg/kg intra-venous): 5.6 ± 2 min
- LVSP (left ventricular systolic blood pressure), Action of substance (anesthetized dogs; 300 µg/kg intra-venous): 115 ± 4 mmHg
- LVSP (left ventricular systolic blood pressure), Change (anesthetized dogs; 300 µg/kg intra-venous): 39 ± 5 mmHg
- LVSP (left ventricular systolic blood pressure), Duration of action (anesthetized dogs; 300 µg/kg intra-venous): 151 ± 24 min
- MAP (mean arterial blood pressure), Action of substance (anesthetized dogs; 300 µg/kg intra-venous): 49 ± 3 mmHg
- MAP (mean arterial blood pressure), Change (anesthetized dogs; 300 µg/kg intra-venous): 55 ± 6 mmHg
- MAP (mean arterial blood pressure), Duration of action (anesthetized dogs; 300 µg/kg intra-venous): 157 ± 39 min
- PAP, Action of substance (anesthetized dogs; 300 µg/kg intra-venous): 18.2 ± 5 mmHg
- PAP, Change (anesthetized dogs; 300 µg/kg intra-venous): 1.5 ± 0.5 mmHg
- PAP, Duration of action (anesthetized dogs; 300 µg/kg intra-venous): 1.4 ± 0.1 min
- SV, Action of substance (anesthetized dogs; 300 µg/kg intra-venous): 3.7 ± 0.4 mL/s
- SV, Change (anesthetized dogs; 300 µg/kg intra-venous): 0.7 ± 0.3 mL/s
- SV, Duration of action (anesthetized dogs; 300 µg/kg intra-venous): 74 ± 43 min
- TPR (total peripheral vascular resistance), Action of substance (anesthetized dogs; 300 µg/kg intra-venous): 42 ± 2 mmHg/ml
- TPR (total peripheral vascular resistance), Change (anesthetized dogs; 300 µg/kg intra-venous): 42 ± 6 mmHg/ml
- TPR (total peripheral vascular resistance), Duration of action (anesthetized dogs; 300 µg/kg intra-venous): 163 ± 16 min
- dp/dtmax (maximum rate of increase in the left ventricular pressure), Action of substance (anesthetized dogs; 300 µg/kg intra-venous): 2133 ± 310 mmHg/s
- dp/dtmax (maximum rate of increase in the left ventricular pressure), Change (anesthetized dogs; 300 µg/kg intra-venous): 1547 ± 423 mmHg/s
- dp/dtmax (maximum rate of increase in the left ventricular pressure), Duration of action (anesthetized dogs; 300 µg/kg intra-venous): > 197 min
- CO, Action of substance (anesthetized dogs; 3000 µg/kg intra-venous): 0.405 ± 0.055 l/M
- CO, Change (anesthetized dogs; 3000 µg/kg intra-venous): 0.450 ± 0.025 l/M
- CO, Duration of action (anesthetized dogs; 3000 µg/kg intra-venous): > 75 min
- HR (heart rate), Action of substance (anesthetized dogs; 3000 µg/kg intra-venous): 182 ± 17 Bts/M
- HR (heart rate), Change (anesthetized dogs; 3000 µg/kg intra-venous): 20 ± 17 Bts/M
- HR (heart rate), Duration of action (anesthetized dogs; 3000 µg/kg intra-venous): 1.4 ± 0.3 min
- LVEDP (left ventricular enddiastolic pressure), Action of substance (anesthetized dogs; 3000 µg/kg intra-venous): 5.6 ± 1 mmHg
- LVEDP (left ventricular enddiastolic pressure), Change (anesthetized dogs; 3000 µg/kg intra-venous): 0.6 ± 0.3 mmHg
- LVEDP (left ventricular enddiastolic pressure), Duration of action (anesthetized dogs; 3000 µg/kg intra-venous): > 73 min
- LVSP (left ventricular systolic blood pressure), Action of substance (anesthetized dogs; 3000 µg/kg intra-venous): 113 ± 3 mmHg
- LVSP (left ventricular systolic blood pressure), Change (anesthetized dogs; 3000 µg/kg intra-venous): 48 ± 3 mmHg
- LVSP (left ventricular systolic blood pressure), Duration of action (anesthetized dogs; 3000 µg/kg intra-venous): > 74 min
- MAP (mean arterial blood pressure), Action of substance (anesthetized dogs; 3000 µg/kg intra-venous): 33 ± 2 mmHg
- MAP (mean arterial blood pressure), Change (anesthetized dogs; 3000 µg/kg intra-venous): 67 ± 4 mmHg
- MAP (mean arterial blood pressure), Duration of action (anesthetized dogs; 3000 µg/kg intra-venous): > 114 min
- PAP, Action of substance (anesthetized dogs; 3000 µg/kg intra-venous): 18.2 ± 7 mmHg
- PAP, Change (anesthetized dogs; 3000 µg/kg intra-venous): 2.3 ± 0.8 mmHg
- PAP, Duration of action (anesthetized dogs; 3000 µg/kg intra-venous): 2 ± 0.6 min
- SV, Action of substance (anesthetized dogs; 3000 µg/kg intra-venous): 3.0 ± 0.6 mL/s
- SV, Change (anesthetized dogs; 3000 µg/kg intra-venous): 2.6 ± 0.4 mL/s
- SV, Duration of action (anesthetized dogs; 3000 µg/kg intra-venous): > 75 min
- TPR (total peripheral vascular resistance), Action of substance (anesthetized dogs; 3000 µg/kg intra-venous): 44 ± 10 mmHg/ml
- TPR (total peripheral vascular resistance), Change (anesthetized dogs; 3000 µg/kg intra-venous): 74 ± 6 mmHg/ml
- TPR (total peripheral vascular resistance), Duration of action (anesthetized dogs; 3000 µg/kg intra-venous): 24 ± 6 min
- dp/dtmax (maximum rate of increase in the left ventricular pressure), Action of substance (anesthetized dogs; 3000 µg/kg intra-venous): 2019 ± 123 mmHg/s
- dp/dtmax (maximum rate of increase in the left ventricular pressure), Change (anesthetized dogs; 3000 µg/kg intra-venous): 1828 ± 238 mmHg/s
- dp/dtmax (maximum rate of increase in the left ventricular pressure), Duration of action (anesthetized dogs; 3000 µg/kg intra-venous): > 75 min
- ED50 (anesthetized rat; Rattus norvegicus, po, 0.5 h, perorally 30 minutes before the lypressin injection, dose column in mg/kg): 89.5 mg/kg
- Duration of action at the ED50 dose (anesthetized rat; perorally at various times before the lypressin injection): 2 h
- tolerance (clinical symptoms, fatal consequences) (Mice): without clinical symptoms and without fatal consequences
- Number of rats surviving after an acute coronary ligature, 24 hours (rats; control 21/80): 17/20**
- Number of rats surviving after an acute coronary ligature, 7 days (rats; control 21/80): 17/20**
- Number of rats surviving after an acute coronary ligature, 60 minutes (rats; control 23/80): 17/20**
- HR (heart rate), Action of substance after 1 hours (conscious beagle dogs): 101 ± 17 Bts/M
- HR (heart rate), Action of substance after 2 hours (conscious beagle dogs): 110 ± 16 Bts/M
- HR (heart rate), Action of substance after 4 hours (conscious beagle dogs): 89 ± 8 Bts/M
- HR (heart rate), Action of substance after 6 hours (conscious beagle dogs): 89 ± 5 Bts/M
- HR (heart rate), Action of substance after 8 hours (conscious beagle dogs): 85 ± 7 Bts/M
- SBP (systolic blood pressure), Action of substance after 1 hours (conscious beagle dogs): 91 ± 6 mmHg
- SBP (systolic blood pressure), Action of substance after 2 hours (conscious beagle dogs): 89 ± 4 mmHg
- SBP (systolic blood pressure), Action of substance after 4 hours (conscious beagle dogs): 97 ± 5 mmHg
- SBP (systolic blood pressure), Action of substance after 6 hours (conscious beagle dogs): 101 ± 5 mmHg
- SBP (systolic blood pressure), Action of substance after 8 hours (conscious beagle dogs): 115 ± 7 mmHg

Reference: patent publication EP0319030A1, “Aminopropanol derivatives of 1,4:3,6-dianhydro-hexitol nitrates, processes for their preparation and their use as medicaments” (Heinrich Mack Nachf., priority 1987, dated 1989)
